Where two headings read alike, the source gives them in different places.
Tests used:
NEK2 = target: T1, NEK2 (Homo sapiens, UniProt P51955); assay: Kinase activity test (ReactionBiology), % enzyme activity relative to DMSO; type: biochemical; conditions: NEK2;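 also: FDA-approved drugs chosen by structure-based repositioning, each screened at 10 or 1 µM for kinase activity, expressed as percent of DMSO controls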
T1 construct: purchased ReactionBiology
T1 sequence (P51955 1-445): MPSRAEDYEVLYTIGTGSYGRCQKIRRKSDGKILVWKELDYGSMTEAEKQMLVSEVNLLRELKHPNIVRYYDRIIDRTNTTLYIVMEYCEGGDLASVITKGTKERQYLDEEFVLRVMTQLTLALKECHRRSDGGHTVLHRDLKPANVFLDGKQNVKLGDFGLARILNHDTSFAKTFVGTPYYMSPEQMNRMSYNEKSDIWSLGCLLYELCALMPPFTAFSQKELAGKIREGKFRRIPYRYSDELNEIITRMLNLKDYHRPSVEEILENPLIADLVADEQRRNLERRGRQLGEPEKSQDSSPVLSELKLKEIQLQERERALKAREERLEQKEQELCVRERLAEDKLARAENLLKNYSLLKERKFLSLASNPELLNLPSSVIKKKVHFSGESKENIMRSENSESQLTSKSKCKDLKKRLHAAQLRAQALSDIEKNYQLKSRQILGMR

DAPK1 = target: T2, DAPK1 (Homo sapiens, UniProt P53355); assay: as above; type: biochemical; conditions: DAPK1
T2 construct: purchased ReactionBiology
T2 sequence (P53355 whole entry): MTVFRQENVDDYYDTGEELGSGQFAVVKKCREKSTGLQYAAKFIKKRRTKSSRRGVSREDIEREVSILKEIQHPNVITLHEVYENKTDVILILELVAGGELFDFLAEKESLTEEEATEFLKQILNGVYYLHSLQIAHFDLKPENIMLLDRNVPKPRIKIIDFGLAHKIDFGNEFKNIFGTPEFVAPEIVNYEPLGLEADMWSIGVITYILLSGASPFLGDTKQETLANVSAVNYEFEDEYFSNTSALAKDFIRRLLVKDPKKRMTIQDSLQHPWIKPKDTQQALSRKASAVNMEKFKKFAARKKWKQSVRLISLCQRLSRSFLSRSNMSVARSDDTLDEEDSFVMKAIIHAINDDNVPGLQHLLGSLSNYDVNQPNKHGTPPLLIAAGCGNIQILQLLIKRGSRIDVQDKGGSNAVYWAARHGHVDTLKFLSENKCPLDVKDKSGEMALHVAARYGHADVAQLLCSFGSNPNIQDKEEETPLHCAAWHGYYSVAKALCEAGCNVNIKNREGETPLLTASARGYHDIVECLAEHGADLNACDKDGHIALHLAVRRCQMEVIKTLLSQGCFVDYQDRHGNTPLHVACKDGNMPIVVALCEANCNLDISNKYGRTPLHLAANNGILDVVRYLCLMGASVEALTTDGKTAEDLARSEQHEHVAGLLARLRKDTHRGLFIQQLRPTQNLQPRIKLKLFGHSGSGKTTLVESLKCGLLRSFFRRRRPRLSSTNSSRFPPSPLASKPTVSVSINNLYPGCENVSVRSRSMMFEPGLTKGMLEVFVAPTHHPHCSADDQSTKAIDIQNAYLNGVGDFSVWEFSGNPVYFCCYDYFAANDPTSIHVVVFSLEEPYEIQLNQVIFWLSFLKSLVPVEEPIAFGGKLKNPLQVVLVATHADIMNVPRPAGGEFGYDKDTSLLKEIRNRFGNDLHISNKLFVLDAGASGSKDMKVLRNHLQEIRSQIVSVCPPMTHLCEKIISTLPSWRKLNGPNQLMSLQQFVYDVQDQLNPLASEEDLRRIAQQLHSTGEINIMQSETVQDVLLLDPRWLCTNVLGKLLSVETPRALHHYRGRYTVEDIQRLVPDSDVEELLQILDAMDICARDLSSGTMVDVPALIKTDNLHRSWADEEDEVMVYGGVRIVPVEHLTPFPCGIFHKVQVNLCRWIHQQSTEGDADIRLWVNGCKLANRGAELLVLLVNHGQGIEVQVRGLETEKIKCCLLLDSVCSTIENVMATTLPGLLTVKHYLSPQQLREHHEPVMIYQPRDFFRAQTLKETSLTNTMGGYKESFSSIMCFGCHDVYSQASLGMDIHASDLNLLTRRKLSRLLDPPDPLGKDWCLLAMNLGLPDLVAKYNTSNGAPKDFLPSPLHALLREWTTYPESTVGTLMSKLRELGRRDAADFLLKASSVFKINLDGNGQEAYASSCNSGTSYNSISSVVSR

CK1d = target: T3, CK1d (Homo sapiens, UniProt P48730); assay: as above; type: biochemical; conditions: CK1d
T3 construct: purchased ReactionBiology
T3 sequence (P48730 whole entry): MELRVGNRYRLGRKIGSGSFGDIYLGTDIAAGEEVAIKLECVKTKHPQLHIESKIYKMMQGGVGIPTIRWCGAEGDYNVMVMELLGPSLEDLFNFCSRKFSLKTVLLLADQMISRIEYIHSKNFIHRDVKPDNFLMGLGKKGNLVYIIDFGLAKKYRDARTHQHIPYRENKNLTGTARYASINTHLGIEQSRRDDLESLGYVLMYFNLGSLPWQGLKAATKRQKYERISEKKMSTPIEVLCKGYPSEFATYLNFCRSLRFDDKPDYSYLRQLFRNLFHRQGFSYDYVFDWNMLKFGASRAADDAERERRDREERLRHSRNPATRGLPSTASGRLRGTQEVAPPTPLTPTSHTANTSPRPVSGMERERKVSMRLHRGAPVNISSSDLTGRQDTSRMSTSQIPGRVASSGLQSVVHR

EPHB4 = target: T4, EPHB4 (Homo sapiens, UniProt P54760); assay: as above; type: biochemical; conditions: EPHB4;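 also: EPHB4 was one of ten selected kinases in the screening panel, with enzyme activity expressed as a percentage of DMSO controls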
T4 construct: purchased ReactionBiology
T4 sequence (P54760 16-987): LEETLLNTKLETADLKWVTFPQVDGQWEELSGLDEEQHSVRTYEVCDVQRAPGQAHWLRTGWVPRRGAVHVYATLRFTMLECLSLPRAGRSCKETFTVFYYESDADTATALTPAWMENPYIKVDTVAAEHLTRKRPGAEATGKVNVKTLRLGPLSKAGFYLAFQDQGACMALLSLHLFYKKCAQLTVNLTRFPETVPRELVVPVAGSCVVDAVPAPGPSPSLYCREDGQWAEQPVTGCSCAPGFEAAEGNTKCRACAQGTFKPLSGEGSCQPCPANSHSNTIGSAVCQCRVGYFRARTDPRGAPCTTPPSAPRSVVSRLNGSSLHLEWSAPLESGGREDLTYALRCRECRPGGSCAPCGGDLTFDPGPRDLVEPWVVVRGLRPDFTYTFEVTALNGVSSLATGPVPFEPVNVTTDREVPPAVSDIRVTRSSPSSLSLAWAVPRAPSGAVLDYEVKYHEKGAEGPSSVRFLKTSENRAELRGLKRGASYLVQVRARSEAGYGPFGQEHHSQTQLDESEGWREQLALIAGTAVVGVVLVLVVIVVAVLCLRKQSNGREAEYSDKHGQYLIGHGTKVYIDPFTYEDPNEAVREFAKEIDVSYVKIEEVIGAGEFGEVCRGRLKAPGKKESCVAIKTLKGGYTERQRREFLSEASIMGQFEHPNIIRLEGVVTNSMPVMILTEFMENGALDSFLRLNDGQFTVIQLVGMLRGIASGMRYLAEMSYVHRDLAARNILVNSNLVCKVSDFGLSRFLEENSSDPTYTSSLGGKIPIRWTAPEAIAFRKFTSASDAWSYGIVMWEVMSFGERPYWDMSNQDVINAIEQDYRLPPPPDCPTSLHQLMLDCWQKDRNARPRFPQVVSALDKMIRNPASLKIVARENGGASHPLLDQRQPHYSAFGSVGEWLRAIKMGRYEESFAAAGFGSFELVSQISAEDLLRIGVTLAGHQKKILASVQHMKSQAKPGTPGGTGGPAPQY

MAP2K2 = target: T5, MAP2K2 (Homo sapiens, UniProt P36507); assay: as above; type: biochemical; conditions: MEK2
T5 construct: purchased ReactionBiology
T5 sequence (P36507 whole entry): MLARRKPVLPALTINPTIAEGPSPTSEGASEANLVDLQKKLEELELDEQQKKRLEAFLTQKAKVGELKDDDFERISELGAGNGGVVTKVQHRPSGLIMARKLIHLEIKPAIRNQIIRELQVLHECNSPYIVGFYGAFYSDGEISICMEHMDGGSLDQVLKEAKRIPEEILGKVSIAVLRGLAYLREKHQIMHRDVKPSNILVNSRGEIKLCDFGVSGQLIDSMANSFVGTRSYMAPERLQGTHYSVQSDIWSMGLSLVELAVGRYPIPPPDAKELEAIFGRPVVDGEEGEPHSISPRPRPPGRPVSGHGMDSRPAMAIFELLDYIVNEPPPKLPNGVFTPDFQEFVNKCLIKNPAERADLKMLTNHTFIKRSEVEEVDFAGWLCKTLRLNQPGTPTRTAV

human CD19+ B cells = assay: B-cell assay: IgG production of ODN2006-stimulated primary B cells (AlphaLISA); type: cell-based; conditions: Homo sapiens, B-cell, 168 h; IgG production, ODN2006 0.1 μM, 7 days; mean of 4 independent experiments; read-out: B-cell IC50
Description: (§1) Compounds were prepared as 10 mM stock solutions in dimethylsulfoxide (DMSO)and were tested at 50-10-1-0.1-0.01 and 0.001 μM in the 4 assays.
Blood samples of healthy volunteers were collected at the Red Cross of Mechelen, Belgium.
Highly purified naive peripheral human B cells were separated from fresh human PBMCs on magnetic columns by positive selection using CD19 magnetic beads according to the manufacturer’s instructions (MACS Miltenyi Biotech, Leiden, The Netherlands). […] Freshly isolated human CD19+ B cells were then plated at 25 000 cells per well in a 384-well plate (Perkin Elmer, Zaventem, Belgium) in 55 μL in DMEM medium containing 10% FCS and 5 μg/mL gentamicin sulphate. After 7 days of stimulation with 0.1 μM ODN2006 (InvivoGen, Toulouse, France), supernatant was taken for analysis of IgG using the AlphaLISA human IgG kit according to the manufacturer’s instructions (Perkin Elmer, Zaventem, Belgium).

[1] = tested on: human PBMCs (responder cells) with RPMI1788 stimulator cells; assay: Mixed Lymphocyte Reaction (MLR, T cell assay), 3H-thymidine incorporation; type: cell-based; conditions: Homo sapiens, RPMI-1788; mean of 4 independent measures; read-out: T-cell efficacy, MLR IC 50 (µM) Mean
[2] = WST-1 cytotoxicity assay on RPMI1788 cells (B-cell line); type: cell-based, human; conditions: human, RPMI1788 cells (B-cell line), mean of 4 independent measures, read-out: Cytotoxicity, WST-1 RPMI 1788 IC 50 (µM) Mean
Description: as §1
The human B cell line RPMI1788 (American Type Culture Collection, USA) and the human T cell line Jurkat (European Collection of Cell Cultures, ECACC, England) were maintained in RPMI1640 culture medium (BioWhittaker®, Lonza, Verviers, Belgium) containing 10% foetal calf serum (FCS, HyClone® Thermo Scientific, United Kingdom) and 5 μg/mL gentamicin sulphate (BioWhittaker®, Lonza, Verviers, Belgium) at 37°C and 5% CO2.
WST-1 assays on RPMI-1788 cells and Jurkat cells were performed as follows: 20 μL of test compound dilution were added to each well containing exponential growing cells and the plates were incubated for 48 h at 37°C, 5% CO2. Untreated cells and positive control (1% triton X-100, for the last 15 min) served as reference for maximum and minimum viability. At the end of incubation 100 μL of supernatant were removed and replaced by 10 μL of WST-1 solution (Cell Proliferation Reagent WST-1, Roche Applied Science).

[3] = WST-1 cytotoxicity assay on Jurkat cells (T-cell line); type: cell-based, human; conditions: human, Jurkat cells (T-cell line), mean of 4 independent measures, read-out: Cytotoxicity, WST-1 Jurkat IC 50 (µM) Mean
VEGFR2 = VEGFR2 (Homo sapiens, UniProt P35968); assay: Kinase activity test (ReactionBiology), % enzyme activity relative to DMSO; type: biochemical; set-up: purchased ReactionBiology; conditions: VEGFR2;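 also: VEGFR2 was one member of a ten-kinase screening panel testing marketed FDA-approved drugs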
Chain of VEGFR2 (P35968 20-1356): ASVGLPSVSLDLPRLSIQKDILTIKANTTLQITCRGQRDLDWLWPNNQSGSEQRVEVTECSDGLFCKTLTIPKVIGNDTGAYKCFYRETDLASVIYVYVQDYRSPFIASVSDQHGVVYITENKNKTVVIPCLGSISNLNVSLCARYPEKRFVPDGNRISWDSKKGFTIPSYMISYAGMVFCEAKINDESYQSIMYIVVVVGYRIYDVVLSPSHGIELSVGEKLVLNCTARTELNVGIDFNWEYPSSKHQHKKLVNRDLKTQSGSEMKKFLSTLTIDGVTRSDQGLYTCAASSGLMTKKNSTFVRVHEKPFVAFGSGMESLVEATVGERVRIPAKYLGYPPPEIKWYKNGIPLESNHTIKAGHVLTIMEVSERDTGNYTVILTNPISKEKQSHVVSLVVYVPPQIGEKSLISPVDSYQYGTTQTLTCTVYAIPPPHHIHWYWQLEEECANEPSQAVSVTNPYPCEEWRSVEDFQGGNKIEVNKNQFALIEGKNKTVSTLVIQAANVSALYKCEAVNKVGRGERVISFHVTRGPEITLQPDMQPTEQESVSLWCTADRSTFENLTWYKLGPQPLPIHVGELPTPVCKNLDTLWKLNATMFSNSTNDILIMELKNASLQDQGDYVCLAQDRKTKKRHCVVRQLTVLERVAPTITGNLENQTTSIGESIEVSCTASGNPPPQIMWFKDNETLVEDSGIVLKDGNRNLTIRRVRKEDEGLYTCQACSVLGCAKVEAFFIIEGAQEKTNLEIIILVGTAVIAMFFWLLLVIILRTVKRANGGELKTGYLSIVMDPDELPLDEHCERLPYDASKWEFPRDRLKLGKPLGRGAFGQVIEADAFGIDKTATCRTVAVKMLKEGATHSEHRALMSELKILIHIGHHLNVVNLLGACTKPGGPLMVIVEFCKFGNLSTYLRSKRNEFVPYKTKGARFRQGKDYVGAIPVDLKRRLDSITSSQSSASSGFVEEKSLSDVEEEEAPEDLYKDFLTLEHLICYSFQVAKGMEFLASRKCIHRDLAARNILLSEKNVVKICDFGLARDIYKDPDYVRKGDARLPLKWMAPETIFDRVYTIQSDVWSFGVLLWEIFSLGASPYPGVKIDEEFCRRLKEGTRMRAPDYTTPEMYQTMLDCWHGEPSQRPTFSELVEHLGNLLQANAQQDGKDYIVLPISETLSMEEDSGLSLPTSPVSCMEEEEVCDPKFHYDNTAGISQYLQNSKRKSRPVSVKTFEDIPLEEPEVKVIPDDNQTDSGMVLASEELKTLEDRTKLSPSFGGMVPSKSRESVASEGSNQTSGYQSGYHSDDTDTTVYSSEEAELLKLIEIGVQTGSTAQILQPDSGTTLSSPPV

[4] = 1 uM, Average, read-out: % Enzyme Activity (relative to DMSO controls), Average
[5] = 1 uM, replicate Data 1, read-out: % Enzyme Activity (relative to DMSO controls), Data 1
[6] = 1 uM, replicate Data 2, read-out: % Enzyme Activity (relative to DMSO controls), Data 2
[7] = 10 uM, Average, read-out: % Enzyme Activity (relative to DMSO controls), Average
[8] = 10 uM, replicate Data 1, read-out: % Enzyme Activity (relative to DMSO controls), Data 1
[9] = 10 uM, replicate Data 2, read-out: % Enzyme Activity (relative to DMSO controls), Data 2
[10] = compound 1μM, relative to DMSO controls, read-out: % Enzyme activity at 1μM
[11] = compound 10μM, relative to DMSO controls, read-out: % Enzyme activity at 10μM
[12] = Average, read-out: % Enzyme Activity (relative to DMSO controls), Average
[13] = replicate Data 1, read-out: % Enzyme Activity (relative to DMSO controls), Data 1
[14] = replicate Data 2, read-out: % Enzyme Activity (relative to DMSO controls), Data 2

Nc1ncnc2c1ncn2[C@@H]1O[C@H](CO)[C@@H](O)[C@H]1O [Adenosine, reference compound]
remaining activity at 1 µM (NEK2; [4]): 79.9%
remaining activity at 1 µM (NEK2; [5]): 73.6%
remaining activity at 1 µM (NEK2; [6]): 86.1%
remaining activity at 10 µM (NEK2; [7]): 71.7%
remaining activity at 10 µM (NEK2; [8]): 77.2%
remaining activity at 10 µM (NEK2; [9]): 66.2%
remaining activity at 1 µM (NEK2; [10]): 96.1%
remaining activity at 10 µM (NEK2; [11]): 59%
remaining activity at 1 µM (DAPK1; [12]): 99.3%
remaining activity at 1 µM (DAPK1; [13]): 103%
remaining activity at 1 µM (DAPK1; [14]): 95.9%
remaining activity at 10 µM (DAPK1; [12]): 81.1%
remaining activity at 10 µM (DAPK1; [13]): 80.8%
remaining activity at 10 µM (DAPK1; [14]): 81.4%
remaining activity at 1 µM (CK1d; [4]): 87.7%
remaining activity at 1 µM (CK1d; [5]): 86.5%
remaining activity at 1 µM (CK1d; [6]): 88.9%
remaining activity at 10 µM (CK1d; [7]): 50.2%
remaining activity at 10 µM (CK1d; [8]): 51.1%
remaining activity at 10 µM (CK1d; [9]): 49.4%
remaining activity at 1 µM (CK1d; [10]): 87.7%
remaining activity at 10 µM (CK1d; [11]): 50.2%
remaining activity at 1 µM (EPHB4; [12]): 101%
remaining activity at 1 µM (EPHB4; [13]): 100%
remaining activity at 1 µM (EPHB4; [14]): 102%
remaining activity at 10 µM (EPHB4; [12]): 85.4%
remaining activity at 10 µM (EPHB4; [13]): 84.1%
remaining activity at 10 µM (EPHB4; [14]): 86.8%
remaining activity at 1 µM (MAP2K2; [12]): 96.1%
remaining activity at 1 µM (MAP2K2; [13]): 96.6%
remaining activity at 1 µM (MAP2K2; [14]): 95.7%
remaining activity at 10 µM (MAP2K2; [12]): 59%
remaining activity at 10 µM (MAP2K2; [13]): 60.6%
remaining activity at 10 µM (MAP2K2; [14]): 57.4%
IC50 (human CD19+ B cells): > 50 µM
IC50 [1]: > 50 µM
IC50 at 48 h [2]: > 50 µM
IC50 at 48 h [3]: > 50 µM
remaining activity at 1 µM (VEGFR2; [12]): 111%
remaining activity at 1 µM (VEGFR2; [13]): 111%
remaining activity at 1 µM (VEGFR2; [14]): 111%
remaining activity at 10 µM (VEGFR2; [12]): 98.3%
remaining activity at 10 µM (VEGFR2; [13]): 98.4%
remaining activity at 10 µM (VEGFR2; [14]): 98.2%

Source: publication PMC7252619 (PLoS ONE, 2020)
